In experiment [1] the target is T1, recombinant purified human sEH (Homo sapiens, UniProt P34913).
T1 sequence (P34913 1-555): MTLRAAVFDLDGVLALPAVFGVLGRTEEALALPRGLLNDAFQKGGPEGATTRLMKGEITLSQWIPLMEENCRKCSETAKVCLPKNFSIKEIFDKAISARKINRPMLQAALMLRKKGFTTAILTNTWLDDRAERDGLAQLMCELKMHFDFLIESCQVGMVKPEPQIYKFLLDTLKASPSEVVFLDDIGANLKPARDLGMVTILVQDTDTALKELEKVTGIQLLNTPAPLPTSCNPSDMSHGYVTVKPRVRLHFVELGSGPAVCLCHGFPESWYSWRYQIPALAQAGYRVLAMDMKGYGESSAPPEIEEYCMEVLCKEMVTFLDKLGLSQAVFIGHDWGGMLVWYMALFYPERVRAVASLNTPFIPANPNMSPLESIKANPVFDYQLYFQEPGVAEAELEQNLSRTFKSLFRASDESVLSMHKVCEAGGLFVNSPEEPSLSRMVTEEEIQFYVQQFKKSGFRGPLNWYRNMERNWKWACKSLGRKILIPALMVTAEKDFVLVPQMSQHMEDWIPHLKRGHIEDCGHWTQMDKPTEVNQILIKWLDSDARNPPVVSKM
Briefly: sEH inhibition, kinetic fluorescent assay with CMNPC substrate. The format is biochemical.

The target in the next experiment is T2, human sEH (Homo sapiens, UniProt P34913).
T2 sequence (P34913 1-555): T1 sequence (P34913 1-555)
The experiment in a line: FRET competitive displacement assay. The settings on record: for residence time: read-out: t1/2 (residence time on the enzyme). Type of experiment: binding.

Each structure is given as a SMILES string.

A word on the koff: it is the first-order rate constant of dissociation. Low values mean slow dissociation, high ones fast dissociation.

On to `O=C(NCC12CC3CC(CC(C3)C1)C2)Nc1ccc(NC(=O)NCC23CC4CC(CC(C4)C2)C3)cc1` [1e], for which the “inhibition potency in words” value in experiment [1] is on record as “poor potency”.

Regarding `O=C(NCC1CCN(C(=O)NCC23CC4CC(CC(C4)C2)C3)CC1)NCC12CC3CC(CC(C3)C1)C2` [1f], in experiment [1], the “inhibition potency in words” value was “poor potency”.

For the compound `O=C(NCCCCCCNC(=O)NCC12CC3CC(CC(C3)C1)C2)NCC12CC3CC(CC(C3)C1)C2` [1c], at human sEH, the koff is 0.00116 s⁻¹ and the residence time is 10 min.

Regarding `O=C(NCCCCCCCCNC(=O)NC1C2CC3CC(C2)CC1C3)NC1C2CC3CC(C2)CC1C3` (centres unmarked) [3d], on human sEH, the koff amounted to 0.00461 s⁻¹ and the residence time was found to be 2.5 min.

With `CC(NC(=O)NCCCCNC(=O)NC(C)C12CC3CC(CC(C3)C1)C2)C12CC3CC(CC(C3)C1)C2` (centres unmarked) [2b], on human sEH, the koff amounted to 0.00142 s⁻¹ and the residence time was 8 min.

These data come from article PMC4019751 (Bioorganic & medicinal chemistry letters, 2014).
